# In patent publication US7846959B2, “Raf modulators and methods of use” (Exelixis, Inc., priority 2004, dated 2010):
# What was measured:
# c-Raf = c-Raf (Homo sapiens, UniProt P04049); assay: Luciferase-coupled chemiluminescence kinase assay (ATP consumption), c-Raf; format: biochemical; details: read-out: cRaf-1 IC50
# Description: (§1) Tyrosine kinase activity is determined by 1) measurement of kinase-dependent ATP consumption by in the presence of a generic substrate such as […], tyrosine (pEY), by luciferase/luciferin-mediated chemiluminescence or; 2) incorporation of radioactive phosphate derived from ^33P-ATP into a generic substrate which has been adsorbed onto the well surface of polystyrene microtiter plates. Phosphorylated substrate products are quantified by scintillation spectrometry.
# (§2) Luciferase-Coupled Chemiluminescence Assay Protocol
# (§3) Kinase activity is measured as the percent of ATP consumed following the kinase reaction using luciferase-luciferin-coupled chemiluminescence. Reactions were conducted in 384-well white, medium binding microtiter plates (Greiner). Kinase reactions were initiated by combining test compounds, ATP and kinase in a 20 uL volume. The reaction mixture was incubated at ambient temperature for 3 hrs. For c-Raf, B-Raf, and B-RafV599E, […] of the enzyme was pre-incubated with compound in 20 mM Tris pH 7.5, 10 mM MgCl2, 0.03% TX-100, and 1 mM DTT for 30 minutes at room temperature. Following the kinase reaction, a 20 μL aliquot of luciferase-luciferin mix was added and the chemiluminescence signal measured using a Victor^2 plate reader (Perkin Elmer). The luciferase-luciferin mix contained 50 mM HEPES, pH 7.8, 67 mM oxalic acid (pH 7.8), 5 (or 50) mM DTT, 0.4% Triton X-100, 0.25 mg/mL coenzyme A, 63 μM AMP, 28 μg/mL luciferin and 40,000 units/mL luciferase. Total ATP consumption was limited to 25-60% and the IC50 values correlate well with those determined by radiometric assays.
# B-Raf = B-Raf (Homo sapiens, UniProt P15056); assay: Luciferase-coupled chemiluminescence kinase assay (ATP consumption), B-Raf; format: biochemical; details: read-out: bRaf IC50
# Chain of B-Raf (P15056 whole entry): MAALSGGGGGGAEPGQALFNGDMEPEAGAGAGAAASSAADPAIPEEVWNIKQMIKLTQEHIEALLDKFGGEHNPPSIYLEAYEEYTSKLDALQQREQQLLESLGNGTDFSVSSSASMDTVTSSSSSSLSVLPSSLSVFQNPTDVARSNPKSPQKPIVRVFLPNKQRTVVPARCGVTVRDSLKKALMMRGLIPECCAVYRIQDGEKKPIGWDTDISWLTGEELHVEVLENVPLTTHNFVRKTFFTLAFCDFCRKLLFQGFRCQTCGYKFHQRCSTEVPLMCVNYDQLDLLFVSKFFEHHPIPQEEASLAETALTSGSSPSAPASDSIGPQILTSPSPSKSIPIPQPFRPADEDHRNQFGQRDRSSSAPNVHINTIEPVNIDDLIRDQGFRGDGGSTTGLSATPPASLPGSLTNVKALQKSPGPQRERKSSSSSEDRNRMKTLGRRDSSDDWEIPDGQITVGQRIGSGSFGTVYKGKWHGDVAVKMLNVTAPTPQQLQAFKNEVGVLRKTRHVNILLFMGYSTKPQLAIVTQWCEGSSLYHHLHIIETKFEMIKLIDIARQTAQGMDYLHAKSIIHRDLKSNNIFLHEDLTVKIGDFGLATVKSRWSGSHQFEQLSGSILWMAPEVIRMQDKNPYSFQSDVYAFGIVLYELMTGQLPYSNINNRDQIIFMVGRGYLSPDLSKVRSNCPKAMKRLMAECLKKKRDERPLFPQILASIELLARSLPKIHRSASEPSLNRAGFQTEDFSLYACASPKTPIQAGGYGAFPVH
# Description: as §1, §2, §3
# Chain of c-Raf (P04049 whole entry): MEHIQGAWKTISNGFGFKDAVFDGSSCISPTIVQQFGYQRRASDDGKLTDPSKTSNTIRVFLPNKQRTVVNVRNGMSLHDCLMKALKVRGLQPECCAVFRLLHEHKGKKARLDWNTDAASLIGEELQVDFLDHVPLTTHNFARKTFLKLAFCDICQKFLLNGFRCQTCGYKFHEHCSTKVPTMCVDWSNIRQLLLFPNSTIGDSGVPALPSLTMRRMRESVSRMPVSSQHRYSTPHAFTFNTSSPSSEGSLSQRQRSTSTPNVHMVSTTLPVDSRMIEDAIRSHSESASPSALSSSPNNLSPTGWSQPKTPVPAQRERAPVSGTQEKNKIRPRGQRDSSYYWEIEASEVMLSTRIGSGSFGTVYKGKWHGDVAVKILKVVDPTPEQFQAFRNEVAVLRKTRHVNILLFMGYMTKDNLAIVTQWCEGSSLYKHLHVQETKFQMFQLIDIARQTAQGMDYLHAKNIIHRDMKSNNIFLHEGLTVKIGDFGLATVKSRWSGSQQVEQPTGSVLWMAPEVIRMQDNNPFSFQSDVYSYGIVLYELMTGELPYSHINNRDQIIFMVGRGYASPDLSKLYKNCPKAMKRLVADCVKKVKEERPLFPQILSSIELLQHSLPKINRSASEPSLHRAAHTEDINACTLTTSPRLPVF
IC50 (c-Raf) [nM],IC50 (B-Raf) [nM],SMILES
< 100,< 100,"COC(=O)Nc1nc2cc(C3(O)c4ccccc4C(=O)N3Cc3cccs3)ccc2[nH]1 (stereo not drawn) [Entry 98, methyl {5-[1-hydroxy-3-oxo-2-(2-thienylmethyl)-2,3-dihydro-1H-isoindol-1-yl]-1H-benzimidazol-2-yl}carbamate]"
1000 to 10000,1000 to 10000,"COC(=O)Nc1nc2cc(C3(O)c4ccccc4C(=O)N3CCc3ccccc3)ccc2[nH]1 (stereo not drawn) [Entry 99, methyl {5-[1-hydroxy-3-oxo-2-(2-phenylethyl)-2,3-dihydro-1H-isoindol-1-yl]-1H-benzimidazol-2-yl}carbamate]"
≥ 10000,≥ 10000,"CC(C)(C)n1c(N)nc2cc(C3(O)c4ccccc4C(=O)N3Cc3ccccc3)ccc21 (stereo not drawn) [Entry 100, 3-[2-amino-1-(1,1-dimethylethyl)-1H-benzimidazol-5-yl]-3-hydroxy-2-(phenylmethyl)-2,3-dihydro-1H-isoindol-1-one]"
1000 to 10000,1000 to 10000,"Nc1nc2cc(C3(O)c4ccccc4C(=O)N3Cc3ccccc3)ccc2[nH]1 (stereo not drawn) [Entry 101, 3-(2-amino-1H-benzimidazol-5-yl)-3-hydroxy-2-(phenylmethyl)-2,3-dihydro-1H-isoindol-1-one]"
≥ 10000,≥ 10000,"COC(=O)Nc1nc2cc(C3(O)NC(=O)c4ccccc43)ccc2[nH]1 (stereo not drawn) [Entry 102, methyl [5-(1-hydroxy-3-oxo-2,3-dihydro-1H-isoindol-1-yl)-1H-benzimidazol-2-yl]carbamate]"
< 100,< 100,"COC(C)CCOC(=O)Nc1nc2cc(C3(O)c4ccccc4C(=O)N3Cc3ccccc3)ccc2[nH]1 (stereo not drawn) [Entry 103, 3-(methyloxy)butyl {5-[1-hydroxy-3-oxo-2-(phenylmethyl)-2,3-dihydro-1H-isoindol-1-yl]-1H-benzimidazol-2-yl}carbamate]"
< 100,< 100,"COC(=O)Nc1nc2cc(C3(O)c4ccccc4C(=O)N3[C@H](C)c3ccccc3)ccc2[nH]1 (stereo partly drawn) [Entry 104, methyl (5-{1-hydroxy-3-oxo-2-[(1R)-1-phenylethyl]-2,3-dihydro-1H-isoindol-1-yl}-1H-benzimidazol-2-yl)carbamate]"
1000 to 10000,1000 to 10000,"COC(=O)Nc1nc2cc(C3(O)c4ccccc4C(=O)N3[C@@H](C)c3ccccc3)ccc2[nH]1 (stereo partly drawn) [Entry 105, methyl (5-{1-hydroxy-3-oxo-2-[(1S)-1-phenylethyl]-2,3-dihydro-1H-isoindol-1-yl}-1H-benzimidazol-2-yl)carbamate]"
< 100,< 100,"COCCOC(=O)Nc1nc2cc(C3(O)c4ccccc4C(=O)N3Cc3ccccc3)ccc2[nH]1 (stereo not drawn) [Entry 106, 2-(methyloxy)ethyl {5-[1-hydroxy-3-oxo-2-(phenylmethyl)-2,3-dihydro-1H-isoindol-1-yl]-1H-benzimidazol-2-yl}carbamate]"
≥ 10000,≥ 10000,"COC(=O)Nc1nc2ccc(C3(O)c4ccccc4C(=O)N3Cc3ccccc3)cc2n1C (stereo not drawn) [Entry 107, methyl {6-[1-hydroxy-3-oxo-2-(phenylmethyl)-2,3-dihydro-1H-isoindol-1-yl]-1-methyl-1H-benzimidazol-2-yl}carbamate]"
< 100,< 100,"C#CCOC(=O)Nc1nc2cc(C3(O)c4ccccc4C(=O)N3Cc3ccccc3)ccc2[nH]1 (stereo not drawn) [Entry 108, prop-2-yn-1-yl {5-[1-hydroxy-3-oxo-2-(phenylmethyl)-2,3-dihydro-1H-isoindol-1-yl]-1H-benzimidazol-2-yl}carbamate]"
< 100,< 100,"CC#CCOC(=O)Nc1nc2cc(C3(O)c4ccccc4C(=O)N3Cc3ccccc3)ccc2[nH]1 (stereo not drawn) [Entry 109, but-2-yn-1-yl {5-[1-hydroxy-3-oxo-2-(phenylmethyl)-2,3-dihydro-1H-isoindol-1-yl]-1H-benzimidazol-2-yl}carbamate]"

# The next lines start with the compound.
SMILES,IC50 (c-Raf) [nM],IC50 (B-Raf) [nM]
"O=C1COc2ccc(C3(O)c4ccccc4C(=O)N3c3cccc(OCc4ccccc4)c3)cc2N1 (stereo not drawn) [Entry 80, 6-(1-hydroxy-3-oxo-2-{3-[(phenylmethyl)oxy]phenyl}-2,3-dihydro-1H-isoindol-1-yl)-2H-1,4-benzoxazin-3(4H)-one]",≥ 10000,≥ 10000
"NC(=O)c1cccc(N2C(=O)c3ccccc3C2(O)c2ccc3c(c2)NC(=O)CO3)c1 (stereo not drawn) [Entry 81, 3-[1-hydroxy-3-oxo-1-(3-oxo-3,4-dihydro-2H-1,4-benzoxazin-6-yl)-1,3-dihydro-2H-isoindol-2-yl]benzamide]",1000 to 10000,1000 to 10000
"O=C1COc2ccc(C3(O)c4ccccc4C(=O)N3c3cccc(CO)c3)cc2N1 (stereo not drawn) [Entry 82, 6-{1-hydroxy-2-[3-(hydroxymethyl)phenyl]-3-oxo-2,3-dihydro-1H-isoindol-1-yl}-2H-1,4-benzoxazin-3(4H)-one]",1000 to 10000,1000 to 10000
"O=C1COc2ccc(C3(O)c4ccccc4C(=O)N3c3ccccc3F)cc2N1 (stereo not drawn) [Entry 83, 6-[2-(2-fluorophenyl)-1-hydroxy-3-oxo-2,3-dihydro-1H-isoindol-1-yl]-2H-1,4-benzoxazin-3(4H)-one]",1000 to 10000,100 to 1000
"CNc1nc2cc(C3(O)c4ccccc4C(=O)N3Cc3ccccc3)ccc2[nH]1 (stereo not drawn) [Entry 84, 3-hydroxy-3-[2-(methylamino)-1H-benzimidazol-5-yl]-2-(phenylmethyl)-2,3-dihydro-1H-isoindol-1-one]",1000 to 10000,1000 to 10000
"O=C1COc2ccc(C3(O)c4ccccc4C(=O)N3c3cccc(-c4ccccc4)c3)cc2N1 (stereo not drawn) [Entry 85, 6-(2-biphenyl-3-yl-1-hydroxy-3-oxo-2,3-dihydro-1H-isoindol-1-yl)-2H-1,4-benzoxazin-3(4H)-one]",≥ 10000,≥ 10000
"CN(C)Cc1cccc(N2C(=O)c3ccccc3C2(O)c2ccc3c(c2)NC(=O)CO3)c1 (stereo not drawn) [Entry 86, 6-(2-{3-[(dimethylamino)methyl]phenyl}-1-hydroxy-3-oxo-2,3-dihydro-1H-isoindol-1-yl)-2H-1,4-benzoxazin-3(4H)-one]",1000 to 10000,1000 to 10000
"O=C1COc2ccc(C3(O)c4ccccc4C(=O)N3c3cc(Cl)cc(Cl)c3)cc2N1 (stereo not drawn) [Entry 87, 6-[2-(3,5-dichlorophenyl)-1-hydroxy-3-oxo-2,3-dihydro-1H-isoindol-1-yl]-2H-1,4-benzoxazin-3(4H)-one]",1000 to 10000,1000 to 10000
"O=C1COc2ccc(C3(O)c4ccccc4C(=O)N3C3CCNCC3)cc2N1 (stereo not drawn) [Entry 88, 6-(1-hydroxy-3-oxo-2-piperidin-4-yl-2,3-dihydro-1H-isoindol-1-yl)-2H-1,4-benzoxazin-3(4H)-one]",≥ 10000,≥ 10000
"CN(C)CCOc1cccc(N2C(=O)c3ccccc3C2(O)c2ccc3c(c2)NC(=O)CO3)c1 (stereo not drawn) [Entry 89, 6-[2-(3-{[2-(dimethylamino)ethyl]oxy}phenyl)-1-hydroxy-3-oxo-2,3-dihydro-1H-isoindol-1-yl]-2H-1,4-benzoxazin-3(4H)-one]",≥ 10000,≥ 10000
"Cc1ccccc1N1C(=O)c2ccccc2C1(O)c1ccc2c(c1)NC(=O)CO2 (stereo not drawn) [Entry 90, 6-[1-hydroxy-2-(2-methylphenyl)-3-oxo-2,3-dihydro-1H-isoindol-1-yl]-2H-1,4-benzoxazin-3(4H)-one]",1000 to 10000,1000 to 10000
"CN(C(=O)c1ccccc1C(=O)c1ccc2c(c1)NC(=O)CO2)c1ccccc1 [Entry 91, N-methyl-2-[(3-oxo-3,4-dihydro-2H-1,4-benzoxazin-6-yl)carbonyl]-N-phenylbenzamide]",≥ 10000,≥ 10000
"CCOC1(c2ccc3[nH]c(NC(=O)OC)nc3c2)c2ccccc2C(=O)N1Cc1ccccc1 (stereo not drawn) [Entry 92, methyl {5-[1-(ethyloxy)-3-oxo-2-(phenylmethyl)-2,3-dihydro-1H-isoindol-1-yl]-1H-benzimidazol-2-yl}carbamate]",100 to 1000,100 to 1000
"COC(=O)Nc1nc2cc(C(=O)c3ccccc3C(=O)OCc3ccccc3)ccc2[nH]1 [Entry 93, Phenylmethyl 2-[(2-{[(methyloxy)carbonyl]amino}-1H-benzimidazol-5-yl)carbonyl]benzoate]",100 to 1000,100 to 1000
"O=C1c2ccccc2C(O)(c2ccc3[nH]ncc3c2)N1Cc1ccccc1 (stereo not drawn) [Entry 94, 3-hydroxy-3-(1H-indazol-5-yl)-2-(phenylmethyl)-2,3-dihydro-1H-isoindol-1-one]",100 to 1000,100 to 1000
"O=C1c2ccccc2C(O)(c2ccc3cn[nH]c3c2)N1Cc1ccccc1 (stereo not drawn) [Entry 95, 3-hydroxy-3-(1H-indazol-6-yl)-2-(phenylmethyl)-2,3-dihydro-1H-isoindol-1-one]",≥ 10000,≥ 10000
"CCOC(=O)Nc1nc2cc(C3(O)c4ccccc4C(=O)N3Cc3ccccc3)ccc2[nH]1 (stereo not drawn) [Entry 96, ethyl {5-[1-hydroxy-3-oxo-2-(phenylmethyl)-2,3-dihydro-1H-isoindol-1-yl]-1H-benzimidazol-2-yl}carbamate]",≥ 10000,≥ 10000
"CC(C)COC(=O)Nc1nc2cc(C3(O)c4ccccc4C(=O)N3Cc3ccccc3)ccc2[nH]1 (stereo not drawn) [Entry 97, 2-methylpropyl {5-[1-hydroxy-3-oxo-2-(phenylmethyl)-2,3-dihydro-1H-isoindol-1-yl]-1H-benzimidazol-2-yl}carbamate]",100 to 1000,100 to 1000
